Results: PubChem BioAssay (NCI)
“And” between values parts separate entries of the source, which are not always exact repeats. Equal entries are not always repeated.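 Five concentrations, 48 hours, 96-well plates. GI50 is the concentration that inhibits growth by half. At the TGI there is no net growth.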

What was measured:
Assay in all cases: inhibition of tumour cell growth, NCI panel, 48 h
HT29 colon = system: HT29 colon
K-562 leukemia = system: K-562 leukemia
KM20L2 colon = system: KM20L2 colon
NCI-H460 lung = system: NCI-H460 lung
SF-295 CNS = system: SF-295 CNS
SF-539 CNS = system: SF-539 CNS
M19-MEL melanoma = system: M19-MEL melanoma
SK-MEL-5 melanoma = system: SK-MEL-5 melanoma
BT-549 breast = system: BT-549 breast
MDA-MB-435 = system: MDA-MB-435

SMILES	TGI (HT29 colon)	TGI (K-562 leukemia) [µM]	TGI (KM20L2 colon) [µM]	TGI (NCI-H460 lung)	TGI (SF-295 CNS)	TGI (SF-539 CNS)	TGI (M19-MEL melanoma)	TGI (SK-MEL-5 melanoma)	GI50 (HT29 colon) [µM]	GI50 (K-562 leukemia) [µM]	GI50 (KM20L2 colon) [µM]	GI50 (M19-MEL melanoma) [µM]	GI50 (NCI-H460 lung) [µM]	GI50 (SF-295 CNS) [µM]	GI50 (SF-539 CNS) [µM]	GI50 (SK-MEL-5 melanoma) [µM]	TGI (BT-549 breast) [µM]	GI50 (BT-549 breast) [µM]	GI50 (MDA-MB-435) [µM]	TGI (MDA-MB-435) [µM]
Cc1ccc2c(c1)-c1c3c(nn1-c1ccccc1)-c1ccccc1SC3O2 (configuration not stated)	> 100 µM	> 100	> 100	> 100 µM	> 100 µM	> 100 µM	–	–	–	–	–	–	–	–	–	–	–	–	–	–
COc1cc2c[n+](C)c3c4cc(OC)c(OC(C)C)cc4ccc3c2cc1OC	> 100 µM	> 100	> 100	> 100 µM	> 100 µM	> 100 µM	48.7 µM	> 100 µM	–	–	–	–	–	–	–	–	–	–	–	–
C[C@H](OCc1ccccc1)C(=O)N1CCS(=O)(=O)N2CCC[C@@H]2C1=O	> 100 µM	> 100	> 100	> 100 µM	> 100 µM	> 100 µM	> 100 µM	> 100 µM	–	–	–	–	–	–	–	–	–	–	–	–
Cc1ccccc1C1OC(=O)c2ccc3ccccc3c21 (configuration not stated)	> 31.6 µM	19.5	15.8	12.6 µM	> 31.6 µM	13.4 µM	11.4 µM	13 µM	–	–	–	–	–	–	–	–	–	–	–	–
C=Cc1cncc(C#N)c1CCc1c(C#N)cncc1C=C	> 100 µM	> 100	> 100	> 100 µM	> 100 µM	> 100 µM	> 100 µM	> 100 µM	> 100	> 100	> 100	> 100	> 100	> 100	> 100	> 100	–	–	–	–
C=C/C=C/NC(=O)OCc1ccccc1	> 100 µM	> 100	> 100	> 100 µM	> 100 µM	–	> 100 µM	> 100 µM	–	–	–	–	–	–	–	–	–	–	–	–
CN(C(=O)C12C3C4C1C1C2C3C41C(N)=O)C(C)(C)C (configuration not stated)	> 100 µM	> 100	–	> 100 µM	> 100 µM	> 100 µM	> 100 µM	> 100 µM	–	–	–	–	–	–	–	–	–	–	–	–
CC(=O)Nc1ccc(S(=O)(=O)N/N=C/CN2C(=O)c3ccccc3C2=O)cc1	> 100 µM	> 100	> 100	> 100 µM	> 100 µM	> 100 µM	> 100 µM	> 100 µM	–	–	–	–	–	–	–	–	–	–	–	–
C[C@@]12CCC(=O)c3coc(c31)C(=O)c1cc3c(cc12)C(=O)C=CC3=O	> 1 µM and 39.7 µM	> 56.9	> 100	> 70.9 µM	> 1 µM and 31.1 µM	> 1 µM and 31.7 µM	> 1 µM and 15.7 µM	> 1 µM and 28.3 µM	> 1	> 1	> 1	> 1	> 1	> 1	< 1	> 1	–	–	–	–
CC(CN(C)C)/C(=N\Nc1ccccc1)c1ccccc1 (configuration not stated)	17.9 µM	0.527	0.333	15.5 µM	0.358 µM	0.774 µM	14.5 µM	17.5 µM	–	–	–	–	–	–	–	–	–	–	–	–
CCOC(=O)/C(C1=NCCN1)=C(\O)c1ccccc1	> 100 µM	> 100	> 100	> 100 µM	> 100 µM	> 100 µM	> 100 µM	> 100 µM	–	–	–	–	–	–	–	–	–	–	–	–
c1cncc(C2N3CCCCC3[C@@H]3c4[nH]c5ccccc5c4CCN23)c1 (some centres not stated)	> 100 µM	> 100	> 100	> 100 µM	> 100 µM	> 100 µM	> 100 µM	> 100 µM	–	–	–	–	–	–	–	–	–	–	–	–
CCCCCCCCCCCCCCCC(=O)OCC1OC(n2cc(F)c(=O)[nH]c2=O)C(N)C(O)C1O (configuration not stated)	42.1 µM	32.8	30.9	–	31.1 µM	34.8 µM	33.6 µM	33.1 µM	–	–	–	–	–	–	–	–	–	–	–	–
CC1=NN(C(=O)c2ccccc2O)C(=O)/C1=C/c1ccc(O)cc1	> 100 µM	> 100	> 100	> 100 µM	> 100 µM	6.73 µM	–	> 100 µM	–	–	–	–	–	–	–	–	> 100	–	–	–
O=S(=O)(/C=C/c1ccc(F)cc1)Cc1ccc(CS(=O)(=O)/C=C/c2ccc(F)cc2)cc1	> 100 µM	> 100	> 100	> 100 µM	> 100 µM	> 100 µM	> 100 µM	> 100 µM	–	–	–	–	–	–	–	–	–	–	–	–
C=C1CC2OC(=O)C(=C)C2C(O)C2C(=C)CCC12 (configuration not stated)	15.1 µM	30.5	–	27.8 µM	22.8 µM	11.5 µM	20.1 µM	25.3 µM	–	–	–	–	–	–	–	–	–	–	–	–

SMILES	TGI (HT29 colon)	TGI (K-562 leukemia) [µM]	TGI (KM20L2 colon) [µM]	TGI (NCI-H460 lung)	TGI (SF-295 CNS)	TGI (SF-539 CNS)	TGI (M19-MEL melanoma)	TGI (SK-MEL-5 melanoma)	GI50 (HT29 colon) [µM]	GI50 (K-562 leukemia) [µM]	GI50 (KM20L2 colon) [µM]	GI50 (M19-MEL melanoma) [µM]	GI50 (NCI-H460 lung) [µM]	GI50 (SF-295 CNS) [µM]	GI50 (SF-539 CNS) [µM]	GI50 (SK-MEL-5 melanoma) [µM]	TGI (BT-549 breast) [µM]	GI50 (BT-549 breast) [µM]	GI50 (MDA-MB-435) [µM]	TGI (MDA-MB-435) [µM]
COc1ccc2c(c1)C(=O)c1ccc(OC)cc1C2=S	> 100 µM	> 100	> 100	–	> 100 µM	> 100 µM	> 100 µM	> 100 µM	–	–	–	–	–	–	–	–	–	–	–	–
NNC(=O)C1CCC(=O)N1S(=O)(=O)c1ccccc1 (configuration not stated)	> 100 µM	> 100	> 100	> 100 µM	> 100 µM	> 100 µM	> 100 µM	> 100 µM	–	–	–	–	–	–	–	–	–	–	–	–
OC(CCNC12CC3CC(CC(C3)C1)C2)c1ccccc1 (configuration not stated)	> 100 µM	–	> 100	> 100 µM	> 100 µM	> 100 µM	> 100 µM	> 100 µM	–	–	–	–	–	–	–	–	–	–	–	–
CC(=O)[CH-]C(=O)c1ccccc1.CC(=O)[CH-]C(=O)c1ccccc1.CC[O-].CC[O-].[Hf+4]	> 100 µM	> 100	> 100	> 100 µM	> 100 µM	> 100 µM	–	> 100 µM	> 100	> 100	> 100	–	> 100	> 100	> 100	> 100	–	–	–	–
COc1cccc(-c2c[nH]c3c(N/N=C/c4ccncc4)ncnc23)c1	8.9 µM	> 25	–	5.89 µM	> 25 µM	6.81 µM	–	3.91 µM	1.58	1	–	–	1.4	3.5	1.56	0.809	18.5	4.89	1.83	6.9
N#C/C(=C\c1ccsc1)c1nc2ccccc2o1	> 100 µM	> 100	–	> 100 µM	> 100 µM	> 100 µM	–	> 100 µM	> 100	> 100	–	–	> 100	31.5	38.7	58.8	> 100	48.4	> 100	> 100
CC[C@@]1(O)C(=O)OCc2c1cc1n(c2=O)Cc2cc3cc4c(cc3nc2-1)OCO4	–	> 100	> 100	0.0876 µM and 0.0232 µM	0.025 µM	0.0013 µM	0.262 µM and 0.18 µM	0.0721 µM and < 0.0281 µM	–	< 0.0114	0.0569	–	–	–	–	–	–	–	–	–
Nc1ncnc2c1N=C(c1ccc3c(c1)OCO3)CC(c1ccc([N+](=O)[O-])cc1)N2 (configuration not stated)	> 100 µM	> 100	–	> 100 µM	> 100 µM	> 100 µM	–	> 100 µM	63	22.5	–	–	76.3	64.2	> 100	82.9	53.1	1.68	62	> 100
COc1cc2nc(N3CCCC3)nc(NCc3ccccc3)c2cc1OC	7.29 µM	6.02	–	8.73 µM	3.46 µM	3.12 µM	–	3.12 µM	2.29	2.09	–	–	2.95	1.84	1.71	1.65	13.4	3.52	1.69	3.16
CN1CCN(C(=O)C(C)(C)c2ccc(C(=O)Nc3cn4cc(-c5ccncc5)ccc4n3)cc2)CC1	> 94.9 µM	> 100	–	34.3 µM	30.8 µM	1.17 µM	–	0.382 µM	0.358	0.194	–	–	0.303	0.482	0.246	0.188	14.9	0.332	0.367	17.5
C=C1C(O)C2C(=C(CC)C13CC3)C(=O)C(C)(C)C2OC (configuration not stated)	> 100 µM	> 100	–	> 100 µM	> 100 µM	> 100 µM	–	> 100 µM	> 100	31.3	–	–	39.3	> 100	54.4	42.6	> 100	> 100	> 100	> 100
C/C(=N/NC(=S)N1CCCCC1)c1ccccc1O	> 31.6 µM	> 31.6	–	> 31.6 µM	> 31.6 µM	> 100 µM	–	> 100 µM	–	–	–	–	–	–	–	–	> 100	–	–	> 31.6
COc1ccc(C/C(C)=C(/c2ccc(OCCN3CCCCC3)cc2)c2ccc(OC(=O)NCc3ccccc3)cc2)cc1	0.841 µM	1.23	–	0.775 µM	0.802 µM	0.766 µM	–	0.774 µM	0.385	0.301	–	–	0.412	0.436	0.401	0.421	0.763	0.379	0.393	0.736
NC(=O)N/N=C1/CCC(O)CC1CC(=O)O (configuration not stated)	> 100 µM	> 100	–	> 100 µM	> 100 µM	> 100 µM	–	> 100 µM	–	–	–	–	–	–	–	–	> 100	–	–	> 100
Cc1ccccc1OCC(O)CN1CCN(c2ccc(Cl)cc2)CC1 (configuration not stated)	29.2 µM	30.7	–	34.1 µM	29.6 µM	36.5 µM	–	30.2 µM	14.5	10.6	–	–	16.7	14.4	19.5	16.3	33.3	18.3	14.4	28.8
